The test has as its target human topoisomerase IIα (Homo sapiens, UniProt P11388). The test can be described thus: competition against DNA cleavage induced by […] 8-methyl-3′-. Type of test: biochemical.

Sequence of human topoisomerase IIα (P11388 whole entry): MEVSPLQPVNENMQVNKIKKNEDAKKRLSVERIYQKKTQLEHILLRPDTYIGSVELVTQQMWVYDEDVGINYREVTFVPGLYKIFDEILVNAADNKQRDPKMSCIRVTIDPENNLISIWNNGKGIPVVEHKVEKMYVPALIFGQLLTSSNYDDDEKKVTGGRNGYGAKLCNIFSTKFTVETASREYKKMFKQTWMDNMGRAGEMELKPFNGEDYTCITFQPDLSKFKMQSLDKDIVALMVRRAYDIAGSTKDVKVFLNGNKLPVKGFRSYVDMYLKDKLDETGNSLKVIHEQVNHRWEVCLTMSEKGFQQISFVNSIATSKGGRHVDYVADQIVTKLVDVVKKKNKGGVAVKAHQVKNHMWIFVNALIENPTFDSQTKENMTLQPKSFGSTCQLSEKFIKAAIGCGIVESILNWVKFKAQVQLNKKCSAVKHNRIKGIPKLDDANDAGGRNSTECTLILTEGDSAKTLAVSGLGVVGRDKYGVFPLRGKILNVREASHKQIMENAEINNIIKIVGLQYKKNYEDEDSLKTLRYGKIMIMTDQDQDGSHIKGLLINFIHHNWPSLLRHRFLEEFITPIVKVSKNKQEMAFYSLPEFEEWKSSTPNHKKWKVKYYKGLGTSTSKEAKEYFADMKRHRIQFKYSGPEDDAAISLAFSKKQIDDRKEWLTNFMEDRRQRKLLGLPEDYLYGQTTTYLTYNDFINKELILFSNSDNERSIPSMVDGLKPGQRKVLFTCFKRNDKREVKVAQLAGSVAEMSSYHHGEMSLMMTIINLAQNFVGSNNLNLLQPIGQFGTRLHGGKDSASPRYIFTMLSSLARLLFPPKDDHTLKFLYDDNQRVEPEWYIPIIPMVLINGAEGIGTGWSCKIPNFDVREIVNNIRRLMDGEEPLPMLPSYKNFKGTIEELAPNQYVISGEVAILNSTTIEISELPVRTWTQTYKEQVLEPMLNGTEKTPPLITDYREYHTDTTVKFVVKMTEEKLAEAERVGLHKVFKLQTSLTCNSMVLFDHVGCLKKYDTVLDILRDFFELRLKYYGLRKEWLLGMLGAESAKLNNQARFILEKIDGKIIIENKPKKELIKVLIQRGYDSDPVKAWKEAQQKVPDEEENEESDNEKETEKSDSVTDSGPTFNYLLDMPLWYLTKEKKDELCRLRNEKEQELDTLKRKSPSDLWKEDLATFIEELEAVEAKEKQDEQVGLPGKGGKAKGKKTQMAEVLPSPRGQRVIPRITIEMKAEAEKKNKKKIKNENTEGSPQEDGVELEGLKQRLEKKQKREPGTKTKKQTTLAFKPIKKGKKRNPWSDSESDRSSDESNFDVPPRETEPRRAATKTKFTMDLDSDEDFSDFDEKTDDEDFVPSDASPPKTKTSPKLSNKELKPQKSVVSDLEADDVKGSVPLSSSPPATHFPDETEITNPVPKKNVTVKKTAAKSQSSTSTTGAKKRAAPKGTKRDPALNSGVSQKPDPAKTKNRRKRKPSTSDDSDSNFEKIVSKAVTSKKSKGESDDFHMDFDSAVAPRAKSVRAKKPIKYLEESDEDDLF

As usually defined, the IC50 is the point on the concentration scale where inhibition reaches its midpoint. Higher therefore signals weaker potency in that assay. `NCC1CCN(c2cc3c(cc2F)c(=O)c(C(=O)O)cn3C2CC2)C1` (stereo not shown) [8-H-3′-(AM)P-FQ] showed a half-maximal inhibitory concentration (IC50) of around 50 µM.

Values taken from publication PMC3870039 (ACS chemical biology, 2013).
